Measurements as given in ChEMBL document CHEMBL4725230, “Syntheses and pharmacokinetic evaluations of four metabolites of 2-(4-(2-((1H-benzo[d]imidazol-2-yl)thio)ethyl)piperazin-1-yl)-N-(6-methyl-2,4-bis-(methylthio)pyridin-3-yl)acetamide hydrochloride [K-604], an acyl-CoA:cholesterol O-acyltransferase-1 inhibitor” (Bioorg Med Chem, 2020).

Experiment: Retention time of the compound in human liver microsomes after 5 mins in presence of NADPH by LC-MS/MS analysis
Type: ADME, Microsome

Retention_time | Compound
2.73 min | CSc1cc(C)nc([S+](C)[O-])c1NC(=O)CN1CCN(CCSc2nc3ccccc3[nH]2)CC1 (stereo not drawn)
3.21 min | CSc1cc(C)nc(SC)c1NC(=O)CN1CCN(CCSc2nc3cc(O)ccc3[nH]2)CC1
5.78 min | CSc1cc(C)nc(SC)c1NC(=O)CN1CCN(CC[S+]([O-])c2nc3ccccc3[nH]2)CC1 (stereo not drawn)
